# Results reported in ChEMBL document CHEMBL1201862, “PubChem BioAssay data set” (2004).
#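 Following 48 hours of exposure in 96-well plates, responses at five concentrations were used to interpolate endpoints linearly. The concentration for 50% growth inhibition is given as GI50.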 The source made the active and inactive calls. Rule as the data show it: active = GI50 up to about 1.1 µM and inactive = higher.
# Tests used:
# Experiment in all cases: NCI tumour cell line growth inhibition, 48 h
# [1] = tested on: 786-0
# [2] = tested on: A498
# [3] = tested on: A549
# [4] = tested on: ACHN
# [5] = tested on: CAKI-1
# [6] = tested on: CCRF-CEM
# [7] = tested on: COLO 205
# [8] = tested on: DU-145
# [9] = tested on: EKVX
# [10] = tested on: HCC 2998
# [11] = tested on: HCT-116
# [12] = tested on: HCT-15
# [13] = tested on: HL-60
# [14] = tested on: HOP-62
# [15] = tested on: HOP-92
# [16] = tested on: HT-29
# [17] = tested on: Hs-578T
# [18] = tested on: IGROV-1
# [19] = tested on: K562
# [20] = tested on: KM12
# [21] = tested on: LOX IMVI
# [22] = tested on: M14
# [23] = tested on: MCF7
# [24] = tested on: MDA-MB-231
# [25] = tested on: MDA-MB-435
# [26] = tested on: MDA-N
# [27] = tested on: MOLT-4
# [28] = tested on: Malme-3M
# [29] = tested on: NCI-H226
# [30] = tested on: NCI-H23
# [31] = tested on: NCI-H460
# [32] = tested on: NCI-H522
# [33] = tested on: NCI/ADR-RES
# [34] = tested on: OVCAR-3
# [35] = tested on: OVCAR-4
# [36] = tested on: OVCAR-5
# [37] = tested on: OVCAR-8
# [38] = tested on: RPMI-8226
# [39] = tested on: RXF 393
# [40] = tested on: SF-268
# [41] = tested on: SF-295
# [42] = tested on: SF-539
# [43] = tested on: SK-MEL-28
# [44] = tested on: SK-MEL-5
# [45] = tested on: SK-OV-3
# [46] = tested on: SN12C
# [47] = tested on: SNB-19
# [48] = tested on: SNB-75
# [49] = tested on: SR
# [50] = tested on: SW-620
# [51] = tested on: T47D
# [52] = tested on: TK-10
# [53] = tested on: U-251
# [54] = tested on: UACC-257
# [55] = tested on: UACC-62
# [56] = tested on: BT-549
# [57] = tested on: SK-MEL-2
# [58] = tested on: UO-31
compound,measurement,setting,value
CCN(CC)/[N+]([O-])=N/OS(=O)(=O)N(C)C,GI50,[1],> 100 µM (inactive)
same,GI50,[2],> 100 µM (inactive)
same,GI50,[3],> 100 µM (inactive)
same,GI50,[4],> 100 µM (inactive)
same,GI50,[5],> 100 µM (inactive)
same,GI50,[6],> 100 µM (inactive)
same,GI50,[7],> 100 µM (inactive)
same,GI50,[8],> 100 µM (inactive)
same,GI50,[9],> 100 µM (inactive)
same,GI50,[10],> 100 µM (inactive)
same,GI50,[11],> 100 µM (inactive)
same,GI50,[12],> 100 µM
same,GI50,[13],> 100 µM (inactive)
same,GI50,[14],> 100 µM (inactive)
same,GI50,[15],> 100 µM (inactive)
same,GI50,[16],> 100 µM (inactive)
same,GI50,[17],> 100 µM (inactive)
same,GI50,[18],> 100 µM (inactive)
same,GI50,[19],> 100 µM (inactive)
same,GI50,[20],> 100 µM (inactive)
same,GI50,[21],> 100 µM (inactive)
same,GI50,[22],> 100 µM (inactive)
same,GI50,[23],> 100 µM (inactive)
same,GI50,[24],> 100 µM (inactive)
same,GI50,[25],> 100 µM (inactive)
same,GI50,[26],> 100 µM (inactive)
same,GI50,[27],> 100 µM (inactive)
same,GI50,[28],> 100 µM (inactive)
same,GI50,[29],> 100 µM (inactive)
same,GI50,[30],> 100 µM (inactive)
same,GI50,[31],> 100 µM (inactive)
same,GI50,[32],> 100 µM (inactive)
same,GI50,[33],> 100 µM (inactive)
same,GI50,[34],> 100 µM (inactive)
same,GI50,[35],> 100 µM (inactive)
same,GI50,[36],> 100 µM (inactive)
same,GI50,[37],> 100 µM (inactive)
same,GI50,[38],> 100 µM (inactive)
same,GI50,[39],> 100 µM (inactive)
same,GI50,[40],> 100 µM (inactive)
same,GI50,[41],> 100 µM (inactive)
same,GI50,[42],> 100 µM (inactive)
same,GI50,[43],> 100 µM (inactive)
same,GI50,[44],> 100 µM (inactive)
same,GI50,[45],> 100 µM (inactive)
same,GI50,[46],> 100 µM (inactive)
same,GI50,[47],> 100 µM (inactive)
same,GI50,[48],> 100 µM (inactive)
same,GI50,[49],> 100 µM (inactive)
same,GI50,[50],> 100 µM (inactive)
same,GI50,[51],> 100 µM (inactive)
same,GI50,[52],> 100 µM (inactive)
same,GI50,[53],> 100 µM (inactive)
same,GI50,[54],> 100 µM (inactive)
same,GI50,[55],> 100 µM (inactive)
Cc1ccc2c(O)cc(-c3cccc(Cl)c3)nc2n1,GI50,[1],< 0.0255 µM (active)
same,GI50,[2],0.0333 µM (active)
same,GI50,[3],0.0325 µM (active)
same,GI50,[4],0.313 µM (active)
same,GI50,[56],0.278 µM (active)
same,GI50,[5],0.0415 µM (active)
same,GI50,[6],< 0.0238 µM (active)
same,GI50,[7],0.0308 µM (active)
same,GI50,[8],0.194 µM (active)
same,GI50,[9],> 68.1 µM (inactive)
same,GI50,[10],0.12 µM (active)
same,GI50,[11],< 0.016 µM (active)
same,GI50,[12],< 0.0192 µM
same,GI50,[13],< 0.0169 µM (active)
same,GI50,[14],0.0305 µM (active)
same,GI50,[15],1.25 µM (inactive)
same,GI50,[16],< 0.0179 µM (active)
same,GI50,[17],0.028 µM (active)
same,GI50,[18],0.0155 µM (active)
same,GI50,[19],< 0.0169 µM (active)
same,GI50,[20],< 0.0196 µM (active)
same,GI50,[21],0.024 µM (active)
same,GI50,[22],0.0306 µM (active)
same,GI50,[23],< 0.0217 µM (active)
same,GI50,[24],0.0537 µM (active)
same,GI50,[25],< 0.01 µM (active)
same,GI50,[26],1 µM (active)
same,GI50,[27],< 0.0229 µM (active)
same,GI50,[28],0.0661 µM (active)
same,GI50,[29],0.0489 µM (active)
same,GI50,[30],0.272 µM (active)
same,GI50,[31],< 0.0204 µM (active)
same,GI50,[32],< 0.01 µM (active)
same,GI50,[33],0.0411 µM (active)
same,GI50,[34],< 0.01 µM (active)
same,GI50,[35],> 62.1 µM (inactive)
same,GI50,[37],0.115 µM (active)
same,GI50,[38],< 0.0212 µM (active)
same,GI50,[40],0.59 µM (active)
same,GI50,[41],< 0.0151 µM (active)
same,GI50,[42],< 0.01 µM (active)
same,GI50,[43],0.0916 µM (active)
same,GI50,[57],0.0324 µM (active)
same,GI50,[44],< 0.0177 µM (active)
same,GI50,[45],0.0411 µM (active)
same,GI50,[47],0.0705 µM (active)
same,GI50,[49],0.0266 µM (active)
same,GI50,[50],< 0.01 µM (active)
same,GI50,[52],> 59.8 µM (inactive)
same,GI50,[53],0.0308 µM (active)
same,GI50,[54],0.0393 µM (active)
same,GI50,[55],< 0.01 µM (active)
same,GI50,[58],0.902 µM (active)
